# Experimental data: patent US10639276B2, “Liposomes with ginsenoside as membrane material and preparations and use thereof” (SHANGHAI GINPOSOME PHARMATECH CO., LTD., priority 2015, dated 2020)
# How the values were obtained:
# Assay in all cases: Cell survival rate, cell experiment in vitro (MTT)
# [1] = tested on: paclitaxel-resistant human pancreatic cancer cell line (BxPC-3/T); format: cell-based
# Experimental: The new recovery BxPC-3 cells were cultured for two generations or three generations under conventional conditions to make the cells grow stably.
# [2] = tested on: human ovarian cancer cell line (A2780)
# Experimental: (§1) Assay of cell experiment in vitro: tumor cells at logarithmic growth phase were collected, resuspended in a DMEM complete culture-medium (containing 10% fetal bovine serum, 100 U/ml penicillin, 100 μg/ml streptomycin) and a final concentration was 4×10^4 cells/ml. In a 96-well cell culture plate, 200 μl above cell suspension was added into each well (8×10^3 cells/well), and cultured for 48 h in a cell incubator at 37° C. filled with 5% CO2. The DMEM complete culture-medium was respectively replaced with 200 μL antitumor drug with different concentrations. The final concentrations of the drugs were set no less than six groups. The DMEM complete culture-medium was as the negative control group. Each concentration was set 4 wells and the experiment was repeated for 3 times. 20 μl 5 mg/mL MTT solution was added into each well after the cells were cultured for 72 h in a cell incubator at 37° C. filled with 5% CO2. The supernatant was discarded after it was further cultured for 4 h in a cell incubator. 150 μl DMSO was added into each well, shaked for 10 min. An OD was determined at 490 nm by a continuous spectrum multifunctional microplate reader (Tecan infinite M 200 TECAN, Switzerland). The cell survival rate was calculated by the following formula: (the cell survival rate (%)=ODdrug/ODcontrol×100%). Cell survival rate (%)=OD490(sample)/OD490(control)×100%;
# (§2) Wherein OD490(sample) is the OD of the experimental group, OD490(control) is the OD of the blank control group.
# [3] = tested on: paclitaxel-resistant human ovarian cancer cell line (A2780/T)
# Experimental: as §1, §2
structure (smiles),measurement,setting,value
"CC(=O)O[C@H]1C(=O)[C@@]2(C)[C@H]([C@H](OC(=O)c3ccccc3)[C@]3(O)C[C@H](OC(=O)[C@H](O)[C@@H](NC(=O)c4ccccc4)c4ccccc4)C(C)=C1C3(C)C)[C@]1(OC(C)=O)CO[C@@H]1C[C@@H]2O [Taxol, paclitaxel]",Cell Viability,"[1]; C (μM): Taxol + Rg5 1.5625 + 9.375, Taxol 1.5625, Blank Rg5 9.375",0.85
same,Cell Viability,"[1]; C (μM): Taxol + Rg5 12.5 + 75, Taxol 12.5, Blank Rg5 75",0.639
same,Cell Viability,"[1]; C (μM): Taxol + Rg5 25 + 150, Taxol 25, Blank Rg5 150",0.454
same,Cell Viability,"[1]; C (μM): Taxol + Rg5 50 + 300, Taxol 50, Blank Rg5 300",0.272
same,Cell Viability,"[1]; C (μM): Taxol + Rg5 200 + 1200, Taxol 200, Blank Rg5 1200",0.15
same,Cell Viability,"[1]; C (μM): Taxol + Rg5 400 + 2400, Taxol 400, Blank Rg5 2400",0.134
same,Cell Viability,"[2]; C (μM): Taxol + Rg5 0.001953 + 0.011719, Taxol 0.001953, Blank Rg5 0.011719, Abraxane 0.001953",0.866
same,Cell Viability,"[2]; C (μM): Taxol + Rg5 0.007813 + 0.046875, Taxol 0.007813, Blank Rg5 0.046875, Abraxane 0.007813",0.818
same,Cell Viability,"[2]; C (μM): Taxol + Rg5 0.015625 + 0.09375, Taxol 0.015625, Blank Rg5 0.09375, Abraxane 0.015625",0.673
same,Cell Viability,"[2]; C (μM): Taxol + Rg5 0.03125 + 0.1875, Taxol 0.03125, Blank Rg5 0.1875, Abraxane 0.03125",0.443
same,Cell Viability,"[2]; C (μM): Taxol + Rg5 0.25 + 1.5, Taxol 0.25, Blank Rg5 1.5, Abraxane 0.25",0.204
same,Cell Viability,"[2]; C (μM): Taxol + Rg5 0.5 + 3, Taxol 0.5, Blank Rg5 3, Abraxane 0.5",0.185
same,Cell Viability,"[2]; C (μM): Taxol + Rg5 1 + 6, Taxol 1, Blank Rg5 6, Abraxane 1",0.133
same,Cell Viability,"[3]; C (μM): Taxol + Rg5 1.5625 + 9.375, Taxol 1.5625, Blank Rg5 9.375, Abraxane 1.5625",0.856
same,Cell Viability,"[3]; C (μM): Taxol + Rg5 6.25 + 37.5, Taxol 6.25, Blank Rg5 37.5, Abraxane 6.25",0.654
same,Cell Viability,"[3]; C (μM): Taxol + Rg5 12.5 + 75, Taxol 12.5, Blank Rg5 75, Abraxane 12.5",0.393
same,Cell Viability,"[3]; C (μM): Taxol + Rg5 400 + 2400, Taxol 400, Blank Rg5 2400, Abraxane 400",0.139
